Results reported in PubChem BioAssay (NCI).
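Compound exposure: 48 hours, 5 concentrations, 96-well plates. GI50: concentration for 50% inhibition of growth. TGI is the concentration that stops growth completely.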

Legend:
Assay in all cases: NCI anticancer screen, dose series, 48 h
786-0 renal = system: 786-0 renal
A498 renal = system: A498 renal
A549 NSCLC = system: A549 NSCLC
ACHN renal = system: ACHN renal
BT-549 breast = system: BT-549 breast
CAKI-1 renal = system: CAKI-1 renal
CCRF-CEM leukemia = system: CCRF-CEM leukemia
COLO 205 colon = system: COLO 205 colon
DU-145 prostate = system: DU-145 prostate
EKVX NSCLC = system: EKVX NSCLC
HCC-2998 colon = system: HCC-2998 colon
HCT-116 colon = system: HCT-116 colon
HCT-15 colon = system: HCT-15 colon
HL-60(TB) leukemia = system: HL-60(TB) leukemia
HOP-62 NSCLC = system: HOP-62 NSCLC
HOP-92 NSCLC = system: HOP-92 NSCLC
HS 578T breast = system: HS 578T breast
K-562 leukemia = system: K-562 leukemia
KM12 colon = system: KM12 colon
M14 melanoma = system: M14 melanoma
MALME-3M melanoma = system: MALME-3M melanoma
MCF7 breast = system: MCF7 breast
MDA-MB-231 breast = system: MDA-MB-231 breast
MOLT-4 leukemia = system: MOLT-4 leukemia
NCI-H226 lung = system: NCI-H226 lung
NCI-H23 lung = system: NCI-H23 lung
NCI-H460 lung = system: NCI-H460 lung
NCI-H522 lung = system: NCI-H522 lung
NCI/ADR-RES ovarian = system: NCI/ADR-RES ovarian
OVCAR-3 ovarian = system: OVCAR-3 ovarian
OVCAR-4 ovarian = system: OVCAR-4 ovarian
OVCAR-5 ovarian = system: OVCAR-5 ovarian
PC-3 prostate = system: PC-3 prostate
RPMI-8226 leukemia = system: RPMI-8226 leukemia
RXF 393 renal = system: RXF 393 renal
SF-268 CNS = system: SF-268 CNS
SF-539 CNS = system: SF-539 CNS
SK-MEL-2 melanoma = system: SK-MEL-2 melanoma
SK-MEL-28 melanoma = system: SK-MEL-28 melanoma
SK-OV-3 ovarian = system: SK-OV-3 ovarian
SN12C renal = system: SN12C renal
SNB-19 CNS = system: SNB-19 CNS
SNB-75 CNS = system: SNB-75 CNS
SW-620 colon = system: SW-620 colon
T-47D breast = system: T-47D breast
TK-10 renal = system: TK-10 renal
UACC-257 melanoma = system: UACC-257 melanoma
UO-31 renal = system: UO-31 renal

SMILES: CC[C@H](Nc1nc(N)nc(C2CC2)c1C#N)c1nc2cccc(NCc3ccc(C(=O)NO)cc3)c2c(=O)n1-c1ccccc1
- GI50 (786-0 renal): 1680 nM
- TGI (786-0 renal): 3360 nM
- GI50 (A498 renal): 1700 nM
- TGI (A498 renal): 3690 nM
- GI50 (A549 NSCLC): 1930 nM
- TGI (A549 NSCLC): 4520 nM
- GI50 (ACHN renal): 1850 nM
- TGI (ACHN renal): 4580 nM
- GI50 (BT-549 breast): 2500 nM
- TGI (BT-549 breast): 7840 nM
- GI50 (CAKI-1 renal): 1500 nM
- TGI (CAKI-1 renal): 3380 nM
- GI50 (CCRF-CEM leukemia): 734 nM
- TGI (CCRF-CEM leukemia): > 100000 nM
- GI50 (COLO 205 colon): 2240 nM
- TGI (COLO 205 colon): 5750 nM
- GI50 (DU-145 prostate): 1950 nM
- TGI (DU-145 prostate): 4560 nM
- GI50 (EKVX NSCLC): 1750 nM
- TGI (EKVX NSCLC): 3730 nM
- GI50 (HCC-2998 colon): 1950 nM
- TGI (HCC-2998 colon): 5000 nM
- GI50 (HCT-116 colon): 1250 nM
- TGI (HCT-116 colon): 2710 nM
- GI50 (HCT-15 colon): 2050 nM
- TGI (HCT-15 colon): 6960 nM
- GI50 (HL-60(TB) leukemia): 2350 nM
- TGI (HL-60(TB) leukemia): 5650 nM
- GI50 (HOP-62 NSCLC): 1630 nM
- TGI (HOP-62 NSCLC): 4290 nM
- GI50 (HOP-92 NSCLC): 1730 nM
- TGI (HOP-92 NSCLC): 4590 nM
- GI50 (HS 578T breast): 2800 nM
- TGI (HS 578T breast): 9510 nM
- GI50 (K-562 leukemia): 2810 nM
- TGI (K-562 leukemia): > 100000 nM
- GI50 (KM12 colon): 2070 nM
- TGI (KM12 colon): 4690 nM
- GI50 (M14 melanoma): 2020 nM
- TGI (M14 melanoma): 4660 nM
- GI50 (MALME-3M melanoma): 1780 nM
- TGI (MALME-3M melanoma): 4610 nM
- GI50 (MCF7 breast): 2060 nM
- TGI (MCF7 breast): 8280 nM
- GI50 (MDA-MB-231 breast): 1420 nM
- TGI (MDA-MB-231 breast): 3860 nM
- GI50 (MOLT-4 leukemia): 2200 nM
- TGI (MOLT-4 leukemia): 10900 nM
- GI50 (NCI-H226 lung): 1470 nM
- TGI (NCI-H226 lung): 4180 nM
- GI50 (NCI-H23 lung): 1980 nM
- TGI (NCI-H23 lung): 4480 nM
- GI50 (NCI-H460 lung): 1700 nM
- TGI (NCI-H460 lung): 3790 nM
- GI50 (NCI-H522 lung): 1690 nM
- TGI (NCI-H522 lung): 4670 nM
- GI50 (NCI/ADR-RES ovarian): 3310 nM
- TGI (NCI/ADR-RES ovarian): 15600 nM
- GI50 (OVCAR-3 ovarian): 1730 nM
- TGI (OVCAR-3 ovarian): 4550 nM
- GI50 (OVCAR-4 ovarian): 2600 nM
- TGI (OVCAR-4 ovarian): > 100000 nM
- GI50 (OVCAR-5 ovarian): 1920 nM
- TGI (OVCAR-5 ovarian): 5080 nM
- GI50 (PC-3 prostate): 2110 nM
- TGI (PC-3 prostate): 14600 nM
- GI50 (RPMI-8226 leukemia): 2520 nM
- TGI (RPMI-8226 leukemia): 9030 nM
- GI50 (RXF 393 renal): 582 nM
- TGI (RXF 393 renal): 1990 nM
- GI50 (SF-268 CNS): 1740 nM
- TGI (SF-268 CNS): 4120 nM
- GI50 (SF-539 CNS): 1720 nM
- TGI (SF-539 CNS): 3240 nM
- GI50 (SK-MEL-2 melanoma): 2440 nM
- TGI (SK-MEL-2 melanoma): 6750 nM
- GI50 (SK-MEL-28 melanoma): 2670 nM
- TGI (SK-MEL-28 melanoma): 7440 nM
- GI50 (SK-OV-3 ovarian): 1900 nM
- TGI (SK-OV-3 ovarian): 4380 nM
- GI50 (SN12C renal): 1790 nM
- TGI (SN12C renal): 5390 nM
- GI50 (SNB-19 CNS): 2180 nM
- TGI (SNB-19 CNS): 6940 nM
- GI50 (SNB-75 CNS): 1570 nM
- TGI (SNB-75 CNS): 5430 nM
- GI50 (SW-620 colon): 1730 nM
- TGI (SW-620 colon): 4810 nM
- GI50 (T-47D breast): 1820 nM
- TGI (T-47D breast): 5780 nM
- GI50 (TK-10 renal): 2750 nM
- TGI (TK-10 renal): 30300 nM
- GI50 (UACC-257 melanoma): 2050 nM
- TGI (UACC-257 melanoma): 6160 nM
- GI50 (UO-31 renal): 1260 nM
- TGI (UO-31 renal): 2590 nM
